# Laboratory results published in patent US20240287042A1, “NOVEL COMPOUND HAVING INHIBITORY ACTIVITY AGAINST PENDRIN, AND PHARMACEUTICAL USES THEREOF” (UIF (University Industry Foundation), Yonsei University, priority 2021, published 2024).
# Target: T1, human wild-type (WT)-pendrin (Homo sapiens, UniProt O43511)
# T1 construct: expressed in transfected cells
# T1 sequence (O43511 1-780): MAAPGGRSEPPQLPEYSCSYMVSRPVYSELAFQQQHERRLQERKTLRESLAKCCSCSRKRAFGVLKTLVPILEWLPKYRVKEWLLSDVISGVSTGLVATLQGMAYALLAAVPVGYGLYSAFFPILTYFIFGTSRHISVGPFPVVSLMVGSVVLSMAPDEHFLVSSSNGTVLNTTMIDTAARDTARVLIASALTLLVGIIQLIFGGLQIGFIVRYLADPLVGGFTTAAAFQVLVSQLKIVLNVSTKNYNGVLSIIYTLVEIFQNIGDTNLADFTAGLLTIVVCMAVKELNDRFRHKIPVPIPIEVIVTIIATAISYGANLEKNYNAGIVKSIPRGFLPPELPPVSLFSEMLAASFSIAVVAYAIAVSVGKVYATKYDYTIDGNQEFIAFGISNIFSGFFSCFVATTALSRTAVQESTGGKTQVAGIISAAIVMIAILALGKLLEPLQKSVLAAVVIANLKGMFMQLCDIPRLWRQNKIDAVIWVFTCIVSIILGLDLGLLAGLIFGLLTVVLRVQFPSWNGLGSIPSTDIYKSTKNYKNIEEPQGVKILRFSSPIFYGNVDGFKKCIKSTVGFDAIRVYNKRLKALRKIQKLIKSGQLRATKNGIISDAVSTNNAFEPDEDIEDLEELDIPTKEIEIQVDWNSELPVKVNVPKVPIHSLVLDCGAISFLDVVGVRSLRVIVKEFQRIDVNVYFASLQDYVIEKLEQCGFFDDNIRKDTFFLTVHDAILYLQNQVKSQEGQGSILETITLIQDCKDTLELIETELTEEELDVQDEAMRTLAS
# Assay: Pendrin Cl−/I− exchange inhibitory activity, YFP fluorescence in CHO-K1 cells
# Format: cell-based
# Conditions: for IC50: CHO-K1-YFP cells, read-out: IC50 of pendrin-induced Cl−/I− anion exchange; for IC50 / Inhibition of pendrin-induced Cl−/I− anion exchange: FIG. 1; for inhibition at 1 µM / inhibition at 3 µM / inhibition at 10 µM / inhibition at 30 µM / inhibition at 100 µM: CHO-K1; for inhibition at 1 µM: compound concentration 1 μM; for inhibition at 3 µM: compound concentration 3 μM; for inhibition at 10 µM: compound concentration 10 μM; for inhibition at 30 µM: compound concentration 30 μM; for inhibition at 100 µM: compound concentration 100 μM
# Method in brief: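 CHO-K1 cells stably co-expressing human WT pendrin and YFP-F46L/H148Q/I152L were preincubated with compound (1–100 µM, or 50 µM single dose) for 10 min at 37°C in HEPES buffer, pH 7.4. NaI solution was then injected and YFP quenching was recorded; the initial iodide influx rate came from the initial fluorescence slope.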
IC50 [µM],inhibition at 1 µM [%],inhibition at 3 µM [%],inhibition at 10 µM [%],inhibition at 30 µM [%],inhibition at 100 µM [%],Inhibition of pendrin-induced Cl−/I− anion exchange,Efficacy on pendrin relative to YPI-H05 (ratio of IC50 values),SMILES
2.7,< 20,24.6,67.9,95.4,96.5,in a concentration-dependent manner,,"Cc1ccc(C)c(N2CCN(C(=O)Cc3c(C(=O)O)[nH]c4ccc(Cl)cc34)CC2)c1 [YPI-H05, 5-chloro-3-(2-(4-(2,5-dimethylphenyl)piperazin-1-yl-)-2-oxoethyl)-1H-indole-2-carboxylic acid]"
0.57,70.5,93.6,100,100,100,in a concentration-dependent manner,approximately 5 times,"Cc1ccc2[nH]c(C(=O)O)c(CC(=O)N3CCN(c4c(C)cccc4Cl)CC3)c2c1 [YPI-A4948, 3-(2-(4-(2-Chloro-6-methylphenyl)piperazin-1-yl)-2-oxoethyl)-5-methyl-1H-indole-2-carboxylic acid]"
